Results from patent publication US5925769A, “Acetylenic 1,5-diarylpyrazoles as antiinflammatory agents” (Ortho Pharmaceutical, Corp., priority 1998, dated 1999).

Target: T1, CO (Rattus norvegicus, UniProt Q63921)
T1 construct: the supernatant was saved as the source of enzymes; endogenous in cells; host or cells: RBL-1 (rat basophilic leukemia) cells
T1 sequence (Q63921 27-602): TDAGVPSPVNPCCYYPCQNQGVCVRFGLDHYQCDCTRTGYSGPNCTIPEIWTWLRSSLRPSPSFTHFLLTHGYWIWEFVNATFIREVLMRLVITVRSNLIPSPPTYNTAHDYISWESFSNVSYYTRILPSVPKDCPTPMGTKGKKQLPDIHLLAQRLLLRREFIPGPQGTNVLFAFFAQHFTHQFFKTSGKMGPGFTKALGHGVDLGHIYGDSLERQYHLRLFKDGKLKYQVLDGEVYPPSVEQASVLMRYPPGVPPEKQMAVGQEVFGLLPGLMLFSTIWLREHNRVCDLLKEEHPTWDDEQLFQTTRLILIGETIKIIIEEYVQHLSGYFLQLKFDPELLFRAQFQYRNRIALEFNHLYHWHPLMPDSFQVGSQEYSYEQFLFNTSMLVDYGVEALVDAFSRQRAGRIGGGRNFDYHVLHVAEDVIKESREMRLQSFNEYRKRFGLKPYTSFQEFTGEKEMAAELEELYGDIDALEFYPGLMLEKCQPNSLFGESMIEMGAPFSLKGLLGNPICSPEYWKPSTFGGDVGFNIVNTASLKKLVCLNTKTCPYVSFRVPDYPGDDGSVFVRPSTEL
Assay: Procedure II: CO activity in broken RBL-1 cells (homogenate supernatant)
Assay type: biochemical
Conditions: RBL-1 broken cell supernatant; read-out: Proc. II CO IC50
Summary of the method: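 Supernatant from rat RBL-1 homogenate (9,220×g) was pre-incubated 5 min at 37 °C with 2 mM CaCl2 and compound or 1% DMSO, then with 1-^14C-arachidonic acid for 20 min at 37 °C.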

In the case of `COc1ccc(-n2nc(C#CCN(O)C(N)=O)cc2-c2ccc(C)cc2)cc1` [Cpd 1, N-Hydroxy-N-(1(1-(4-methoxyphenyl)-5-(4-methylphenyl)pyrazol-3-yl)-1-propyn-3-yl)urea], the IC50 is reported as 310 nM.
